Results from patent US7161064B2, “Method for producing stably transformed duckweed using microprojectile bombardment” (North Carolina State University, priority 1997, dated 2007).

How the values were obtained:
Format in all cases: cell-based
Spirodela species = experiment: Callus induction screen across Lemnaceae strains, frond health; conditions: 4-5 weeks
Protocol: Duckweed fronds were grown in liquid Schenk and Hildebrandt medium containing 1% sucrose for two weeks at 23° C. under a 16 hr light/8 hr dark photoperiod with light intensity of approximately 40 μmol/m^2·sec prior to experimentation. For callus induction, six basal media were used: Murashige and Skoog, Schenk and Hildebrand (Schenk and Hildebrandt, Can. J. Bot. 50, 199 (1972)), Nitsch and Nitsch, N6 (Chu et al., Scientia Sinica 18, 659 (1975)), Gamborg's B5, and Hoagland's. The two plant growth regulator combinations known to elicit callus proliferation in L. gibba G3 were used: 30 μM 2,4-D and 0.02 μM BA, and 5 μM 2,4-D and 2 μM BA. For each strain, 200 ml of each basal medium was prepared with 3% sucrose, 0.15% Gelrite, and 0.4% Difco Bacto-agar. The 200 ml was divided into 2, 100 ml portions, each to be used to prepare the two plant growth regulator concentrations. The pH of all media was adjusted to 5.8, the media were autoclaved for 30 minutes at 121° C., cooled and 4, 100 mm×15 mm petri dishes were poured from each 100 ml portion.
A 6 media×2 plant growth regulator combinations, 12 treatment, random block experimental design was used for each duckweed strain tested. […] At this time the fronds were evaluated for general health (judged by color: green to yellow, and vigor of proliferation) and the frequency of callus initiation of the three types: Type I, Type II, and Type III.

[1] = tested on: L. minor strains 8744 and 8627; experiment: Callus induction from Lemna minor fronds, auxin and cytokinin type and concentration; conditions: MS medium, 6 weeks
Protocol: In the auxin type and concentration experiment, four auxins: 2,4-D, NAA, IBA and dicamba were tested, each at four concentrations: 2, 5, 10 and 20 μM, for their ability to induce callus formation from L. minor strains 8744 and 8627. The basal medium used was MS and media and experimental protocol was basically that followed in Example 10. Fronds used in this experiment were grown for 2 weeks prior to plating on callus induction medium under 3 different culture conditions: 1) SH medium without plant growth regulators, 2) F medium with 24 μM 2,4-D and 2 μM 2-iP, and 3) SH medium with 24 μM 2,4-D and 2 μM 2-iP. Fronds were separated, the roots cut off and then plated on induction medium. The fronds were incubated under conditions given in Example 8 for 6 weeks at which time cultures were evaluated for the presence or absence of callus induction, the degree to which the callus proliferated, and the basic morphology of the callus present.
In the cytokinin type and concentration experiment, four cytokinins: BA, kinetin, 2-iP, and thidiazuron were tested, each at five concentrations: 0.05, 0.1, 0.5, 1 and 5 μM, for their ability to induce callus formation from L. minor strains 8744 and 8627. The basal medium used was MS and the media and experimental protocol were basically as described in Example 11. Fronds used in this experiment were grown for 2 weeks prior to plating on callus induction medium under 3 different culture conditions: 1) SH medium without plant growth regulators, 2) F medium with 24 μM 2,4-D and 2 μM 2-iP, and 3) SH medium with 24 μM 2,4-D and 2 μM 2-iP. Fronds were separated, the roots cut off and then plated on induction medium. The fronds were incubated under conditions given in Example 8 for 6 weeks at which time cultures were evaluated for the presence or absence of callus induction, the degree to which the callus proliferated, and the basic morphology of the callus.

Lemna gibba G3 = experiment: Callus induction from Lemna gibba G3 fronds on solid medium with plant growth regulators
Protocol: Duckweed fronds were grown in liquid Hoagland's medium (Hoagland and Snyder, Proc. Amer. Soc. Hort. Sci. 30, 288 (1933)) containing 3% sucrose for two weeks at 23° C. under a 16 hr light/8 hr dark photoperiod with light intensity of approximately 40 μmol/m^2·sec prior to experimentation. For callus induction, eighteen, 100 ml portions of Murashige and Skoog basal medium (Murashige and Skoog, Physiol. Plant. 15, 473 (1962)) containing 3% sucrose, 0.15% Gelrite and 0.4% Difco Bacto-agar were prepared with 2,4-D concentrations of 10, 20 and 50 μM and BA concentrations of 0, 0.01, 0.1, 1.0, 2.0, and 10.0 μM. All media were pH adjusted to 5.8, autoclaved at 121° C. for 20 minutes, cooled, and each 100 ml was poured into 4, 100 mm×15 mm petri dishes.
(§1) A three 2,4-D concentrations×six BA concentrations, full-factorial experimental design (18 treatments in total) with four replications, with one petri dish per replication and 5 fronds per petri dish was used. For callus induction, 5 individual duckweed fronds were placed abaxial side down on each plate of medium. The 72 plates were incubated at 23° C., for 27 days under a 16 hr light/8 hr dark photoperiod with light intensity of approximately 40 μmol/m^2·sec. After 27 days the duckweed tissue was transferred to fresh media of the same type and incubation was continued another 35 days under the same temperature and light culturing conditions.
Duckweed fronds were grown in liquid Hoagland's medium containing 3% sucrose for two weeks at 23° C. under a 16 hr light/8 hr dark photoperiod with light intensity of approximately 40 μmol/m^2·sec. prior to experimentation. For callus induction, forty 100 ml portions of Murashige and Skoog medium with 3% sucrose, 0.15% Gelrite, and 0.4% Difco Bacto-agar were prepared with dicamba concentrations of 10, 20, 30, 40, 50, 60, 80, 100 μM and BA concentrations of 0.01, 0.05, 0.1, 0.5, and 1.0 μM. All media were pH adjusted to 5.8, autoclaved at 121° C. for 20 minutes, cooled, and each 100 ml was poured into 4, 100 mm×15 mm petri dishes.
as §1, with “An eight dicamba concentrations×five BA” for “A three 2,4-D concentrations×six BA”, “design (40” for “design (18”, “The” for “The 72”, “After 28” for “After 27”, “another 45” for “another 35”
Duckweed fronds were grown in liquid Schenk and Hildebrandt medium containing 1% sucrose for two weeks at 23° C. under a 16 hr light/8 hr dark photoperiod with light intensity of approximately 40 μmol/m^2·sec prior to experimentation. For callus induction, three basal media were tested: Murashige and Skoog, Schenk and Hildebrandt, and N6. Benzyladenine was used as the cytokinin at a concentration of 1 μM. The auxin concentrations varied with auxin type. For the relatively strong auxins, 2,4-D and dicamba, concentrations were 0, 1, 5, 10 and 20 μM. For weak auxins, NAA and IBA, the concentrations were 0, 5, 10, 20 and 50 μM. For each medium dose-response experiment, 2 liters of basal medium were prepared with BA and the pH adjusted to 5.8. The volume was aliquoted as 20, 100 ml portions. To each of these portions, the appropriate amount of auxin was added and the medium was adjusted to 0.15% Gelrite, and 0.4% Difco Bacto-agar. The media were autoclaved for 30 minutes at 121° C., cooled and 4, 100 mm×15 mm petri dishes were poured from each 100 ml portion.
A 3 media×4 auxin×5 concentration combinations, 60 treatment, randomized dose-response experimental design was used. The design was replicated two times, with one petri dish per replication and 5 fronds per petri dish.

## O=C(O)COc1ccc(Cl)cc1Cl [2,4-D, 2,4-dichlorophenoxyacetic acid]
Spirodela species; higher concentration of 2,4-D (30 μM with 0.02 μM BA)
  frond survival: did not survive
Spirodela species; lower concentration of 2,4-D (5 μM with 2 μM BA)
  frond growth: did not grow well
[1]; strain 8627, auxin experiment
  concentration giving the best callus induction: 5 µM
[1]; strain 8744, auxin experiment
  concentration giving the best callus induction: 5 µM
Lemna gibba G3; 2,4-D x BA factorial, Murashige and Skoog medium, 62 days
  concentrations at which callus proliferation was the most vigorous: 20 to 50 µM
Lemna gibba G3; auxin with 1 μM BA, five weeks
  compact Type I callus induction on MS medium: some degree of callus induction
  compact Type I callus induction on N6 medium: produced callus
